Measurements from ChEMBL document CHEMBL1121942, “Sparsophenicol: a new synthetic hybrid antibiotic inhibiting ribosomal peptide synthesis” (J Med Chem, 1982).

Legend:
Escherichia coli [1] = test: Tested for the percent inhibition against N-acetyl-L-phenylalanyl tRNA-70S Escherichia coli ribosome poly-U complex at 3.8*10e-4M concentration; format: functional
Escherichia coli [2] = test: Tested for the inhibitory activity against N-acetyl-L-phenylalanyl tRNA-70S Escherichia coli ribosome poly-U complex; format: functional, organism-based

Row | Structure (SMILES) | Inhibition (Escherichia coli [1]) [%] | Ki (Escherichia coli [2]) [µM]
1 | Cc1nc(O)nc(O)c1/C=C/C(=O)ON1C(=O)CCCC1=O | 20 | 
2 | Cc1nc(O)nc(O)c1/C=C/C(=O)N(C)C |  | 350
3 | Cc1nc(O)nc(O)c1/C=C/C(=O)NC(CO)C(O)c1ccc([N+](=O)[O-])cc1 (centres undefined) |  | 3
4 | COc1ccc(C[C@H](N)C(=O)N[C@H]2[C@@H](O)[C@H](n3cnc4c(N(C)C)ncnc43)O[C@@H]2CO)cc1 [PUROMYCIN] |  | 220
